Source: PubChem BioAssay AID1963977 (Molecular Pharmacology Branch, DTP, NCI, 2024)
pIC50: −log10 of the molar value. Blank lines part the entries; values can stand above or below the compound they belong to.

Test system: 624824-186-R-J3-PDC multicell spheroids, viability
Test: Anticancer human tumor 624824-186-R-J3-PDC patient-derived colon adenocarcinoma cell line growth inhibition [PI3K]
Conditions: for pIC50: curve of first compound; for viability, T/C: stronger effect = lower value
Procedure, shortened: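 Tumor cells were combined with HUVEC and MSCs into spheroids, then dosed with PI3K-inhibitor combinations over half-log ranges capped near clinical Cmax or 10 microM.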

[1] = second compound 0.0316 µM, first compound 0.0316 µM
[2] = second compound 0.0316 µM, first compound 0.1 µM
[3] = second compound 0.1 µM, first compound 0.0316 µM
[4] = second compound 0.1 µM, first compound 0.1 µM
[5] = second compound 0.316 µM, first compound 0.0316 µM
[6] = second compound 0.316 µM, first compound 0.1 µM
[7] = second compound 1 µM, first compound 0.0316 µM
[8] = second compound 1 µM, first compound 0.1 µM
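Further: spheroids exposed to agents for seven days before luminescence read.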
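Wherever viability, T/C is given: luminescent signal used as a stand-in for spheroid viability; percent viability relative to DMSO vehicle control wells taken as 100%.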

- pIC50 (second compound 0.00316 µM): 5.16
- pIC50 (second compound 0.01 µM): 5.87
- pIC50 (second compound 0.0316 µM): 6.40
- pIC50 (second compound 0.1 µM): 6.82
- pIC50 (second compound 0.316 µM): > 7.50
- pIC50 (second compound 1 µM): > 7.50
SMILES: Cn1nccc1Nc1nccc(-c2ccn(C(CO)c3ccc(Cl)c(F)c3)c(=O)c2)n1 (stereo unspecified) + COc1c(OCCCN2CCOCC2)ccc2c3n(c(=NC(=O)c4cnc(N)nc4)nc12)CCN3
- viability, T/C (second compound 0.00316 µM, first compound 0.0316 µM): 111%
- viability, T/C (second compound 0.00316 µM, first compound 0.1 µM): 84.7%
- viability, T/C (second compound 0.00316 µM, first compound 0.316 µM): 100%
- viability, T/C (second compound 0.00316 µM, first compound 1 µM): 72.8%
- viability, T/C (second compound 0.00316 µM, first compound 3.16 µM): 57.7%
- viability, T/C (second compound 0.00316 µM, first compound 10 µM): 46.6%
- viability, T/C (second compound 0.01 µM, first compound 0.0316 µM): 112%
- viability, T/C (second compound 0.01 µM, first compound 0.1 µM): 100%
- viability, T/C (second compound 0.01 µM, first compound 0.316 µM): 87.5%
- viability, T/C (second compound 0.01 µM, first compound 1 µM): 51.4%
- viability, T/C (second compound 0.01 µM, first compound 3.16 µM): 41.8%
- viability, T/C (second compound 0.01 µM, first compound 10 µM): 34.4%
- viability, T/C [1]: 90.2%
- viability, T/C [2]: 83.8%
- viability, T/C (second compound 0.0316 µM, first compound 0.316 µM): 56.2%
- viability, T/C (second compound 0.0316 µM, first compound 1 µM): 26.4%
- viability, T/C (second compound 0.0316 µM, first compound 3.16 µM): 25.1%
- viability, T/C (second compound 0.0316 µM, first compound 10 µM): 21.8%
- viability, T/C [3]: 74.5%
- viability, T/C [4]: 58%
- viability, T/C (second compound 0.1 µM, first compound 0.316 µM): 35.9%
- viability, T/C (second compound 0.1 µM, first compound 1 µM): 14.2%
- viability, T/C (second compound 0.1 µM, first compound 3.16 µM): 10.7%
- viability, T/C (second compound 0.1 µM, first compound 10 µM): 9.81%
- viability, T/C [5]: 46.3%
- viability, T/C [6]: 38.4%
- viability, T/C (second compound 0.316 µM, first compound 0.316 µM): 18.3%
- viability, T/C (second compound 0.316 µM, first compound 1 µM): 7.62%
- viability, T/C (second compound 0.316 µM, first compound 3.16 µM): 4.31%
- viability, T/C (second compound 0.316 µM, first compound 10 µM): 2.66%
- viability, T/C [7]: 26%
- viability, T/C [8]: 20.9%
- viability, T/C (second compound 1 µM, first compound 0.316 µM): 13.4%
- viability, T/C (second compound 1 µM, first compound 1 µM): 6.73%
- viability, T/C (second compound 1 µM, first compound 3.16 µM): 3.58%
- viability, T/C (second compound 1 µM, first compound 10 µM): 2.38%

- pIC50 (second compound 0.0316 µM): < 7.00
- pIC50 (second compound 0.1 µM): 7.01
- pIC50 (second compound 0.316 µM): 7.10
- pIC50 (second compound 1 µM): 7.19
- pIC50 (second compound 3.16 µM): 7.54
- pIC50 (second compound 10 µM): 7.81
SMILES: CC(C)n1nc(-c2ccc3oc(N)nc3c2)c2c(N)ncnc21 + Cc1nc(NC(=O)N2CCCC2C(N)=O)sc1-c1ccnc(C(C)(C)C(F)(F)F)c1
- viability, T/C (second compound 0.0316 µM, first compound 0.000316 µM): 110%
- viability, T/C (second compound 0.0316 µM, first compound 0.001 µM): 104%
- viability, T/C (second compound 0.0316 µM, first compound 0.00316 µM): 112%
- viability, T/C (second compound 0.0316 µM, first compound 0.01 µM): 99.1%
- viability, T/C [1]: 91.3%
- viability, T/C [2]: 53.3%
- viability, T/C (second compound 0.1 µM, first compound 0.000316 µM): 103%
- viability, T/C (second compound 0.1 µM, first compound 0.001 µM): 101%
- viability, T/C (second compound 0.1 µM, first compound 0.00316 µM): 101%
- viability, T/C (second compound 0.1 µM, first compound 0.01 µM): 110%
- viability, T/C [3]: 97.8%
- viability, T/C [4]: 48.9%
- viability, T/C (second compound 0.316 µM, first compound 0.000316 µM): 108%
- viability, T/C (second compound 0.316 µM, first compound 0.001 µM): 101%
- viability, T/C (second compound 0.316 µM, first compound 0.00316 µM): 105%
- viability, T/C (second compound 0.316 µM, first compound 0.01 µM): 100%
- viability, T/C [5]: 89.2%
- viability, T/C [6]: 40%
- viability, T/C (second compound 1 µM, first compound 0.000316 µM): 104%
- viability, T/C (second compound 1 µM, first compound 0.001 µM): 105%
- viability, T/C (second compound 1 µM, first compound 0.00316 µM): 97.2%
- viability, T/C (second compound 1 µM, first compound 0.01 µM): 91.3%
- viability, T/C [7]: 77%
- viability, T/C [8]: 34%
- viability, T/C (second compound 3.16 µM, first compound 0.000316 µM): 87.3%
- viability, T/C (second compound 3.16 µM, first compound 0.001 µM): 94.6%
- viability, T/C (second compound 3.16 µM, first compound 0.00316 µM): 89.5%
- viability, T/C (second compound 3.16 µM, first compound 0.01 µM): 72.9%
- viability, T/C (second compound 3.16 µM, first compound 0.0316 µM): 48.5%
- viability, T/C (second compound 3.16 µM, first compound 0.1 µM): 30.4%
- viability, T/C (second compound 10 µM, first compound 0.000316 µM): 67.5%
- viability, T/C (second compound 10 µM, first compound 0.001 µM): 68.4%
- viability, T/C (second compound 10 µM, first compound 0.00316 µM): 68.1%
- viability, T/C (second compound 10 µM, first compound 0.01 µM): 52.8%
- viability, T/C (second compound 10 µM, first compound 0.0316 µM): 42%
- viability, T/C (second compound 10 µM, first compound 0.1 µM): 25.7%

- IC50 (compound alone, run of 04/25/2023): 380 nM [middle of 8 runs]
SMILES: COc1c(OCCCN2CCOCC2)ccc2c3n(c(=NC(=O)c4cnc(N)nc4)nc12)CCN3
- viability, T/C (compound 0.00316 µM): 102% [middle of 8 runs]
- viability, T/C (compound 0.01 µM): 104% [middle of 8 runs]
- viability, T/C (compound 0.0316 µM): 102% [middle of 8 runs]
- viability, T/C (compound 0.1 µM): 85.9% [middle of 8 runs]
- viability, T/C (compound 0.316 µM): 54.4% [middle of 8 runs]
- viability, T/C (compound 1 µM): 31.7% [middle of 8 runs]
